Tests used:
[1] = […]; assay type: tissue-based, Frontal cortex
[2] = molecular target: Sodium-dependent serotonin transporter (Rattus norvegicus, UniProt P31652); assay: Ability to displace 0.4 nM [3H]paroxetine binding to serotonin transporter in rat frontal cortex; assay type: tissue-based
[3] = molecular target: T1, Sodium-dependent dopamine transporter (Rattus norvegicus, UniProt P23977)
Description: Potency of inhibiting 10 pM [125I]RTI-55 binding to dopamine transporter in rat striatal membranes

[4] = molecular target: T1, Sodium-dependent dopamine transporter; assay: Inhibitory activity against dopamine transporter in rat striatal membranes; assay type: cell membranes, Striatum, Membrane
Dopamine receptor [5] = molecular target: Dopamine receptor
Description: Potency of inhibiting 10 pM [125I]-RTI-55 binding to dopamine receptor in rat striatal membranes

Dopamine receptor [6] = assay: Potency of inhibiting [3H]WIN-35428 binding to […] in rat striatal membranes; assay type: cell membranes, Membrane

Chain of Sodium-dependent serotonin transporter (P31652 whole entry): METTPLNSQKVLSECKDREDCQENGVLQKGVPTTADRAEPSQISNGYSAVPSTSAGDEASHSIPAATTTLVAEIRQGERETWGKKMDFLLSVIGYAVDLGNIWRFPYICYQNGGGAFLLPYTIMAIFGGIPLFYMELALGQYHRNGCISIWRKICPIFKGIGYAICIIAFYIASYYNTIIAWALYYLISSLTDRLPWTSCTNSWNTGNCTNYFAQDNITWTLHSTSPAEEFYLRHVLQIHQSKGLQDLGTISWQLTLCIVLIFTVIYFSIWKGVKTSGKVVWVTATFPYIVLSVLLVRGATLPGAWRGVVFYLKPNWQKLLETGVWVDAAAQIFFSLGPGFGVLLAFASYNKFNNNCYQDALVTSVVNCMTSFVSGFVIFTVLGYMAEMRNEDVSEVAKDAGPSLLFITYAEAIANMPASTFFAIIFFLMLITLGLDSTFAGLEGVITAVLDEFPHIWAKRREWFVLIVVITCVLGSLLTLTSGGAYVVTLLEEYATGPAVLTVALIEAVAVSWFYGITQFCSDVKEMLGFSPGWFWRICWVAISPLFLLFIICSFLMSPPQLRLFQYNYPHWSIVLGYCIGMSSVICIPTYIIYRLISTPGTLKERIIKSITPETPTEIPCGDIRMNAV
T1 sequence (P23977 whole entry): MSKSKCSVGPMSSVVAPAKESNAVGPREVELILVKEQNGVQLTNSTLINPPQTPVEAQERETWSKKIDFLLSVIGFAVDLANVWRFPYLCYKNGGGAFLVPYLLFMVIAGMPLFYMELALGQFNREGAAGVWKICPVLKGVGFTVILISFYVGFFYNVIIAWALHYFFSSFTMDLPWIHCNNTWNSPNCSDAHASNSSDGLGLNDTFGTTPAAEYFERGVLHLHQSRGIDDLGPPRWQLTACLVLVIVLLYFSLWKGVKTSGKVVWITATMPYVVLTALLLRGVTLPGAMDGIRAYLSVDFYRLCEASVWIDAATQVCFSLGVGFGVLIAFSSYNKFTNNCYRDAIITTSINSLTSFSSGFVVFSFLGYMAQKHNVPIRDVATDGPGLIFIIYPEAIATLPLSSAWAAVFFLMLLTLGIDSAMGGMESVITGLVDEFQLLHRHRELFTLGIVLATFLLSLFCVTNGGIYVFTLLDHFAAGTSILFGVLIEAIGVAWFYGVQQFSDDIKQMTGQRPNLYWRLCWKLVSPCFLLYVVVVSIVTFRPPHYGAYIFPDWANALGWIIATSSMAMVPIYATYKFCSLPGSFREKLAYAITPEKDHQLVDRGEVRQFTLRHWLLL

SMILES | Ki [1] | Ki [2] | IC50 [3] | IC50 (Dopamine receptor [5]) | also measured
COC(=O)[C@H](c1ccc(Cl)cc1)[C@@H]1CCCCN1 (racemic) | > 10 µM | – | – | – | –
COC(=O)[C@H](c1ccc2ccccc2c1)[C@H]1CCCCN1 (racemic) | 0.0716 µM | – | – | – | –
COC(=O)[C@H](c1ccccc1)[C@H]1CCCN1 (racemic) | – | > 10000 nM | 3160 nM | – | IC50 [4]: 1340 nM
COC(=O)[C@H](c1ccc(Cl)c(Cl)c1)[C@H]1CCCCN1.Cl (racemic) | > 10 µM | – | – | 2.67 nM | IC50 (Dopamine receptor [6]): 5.3 nM
COC(=O)[C@H](c1ccc(C)cc1)[C@@H]1CCCCN1.Cl (racemic) | > 10 µM | – | – | 7430 nM | –
COC(=O)[C@@H](c1ccc2ccccc2c1)[C@H]1CCCN1 | – | 2020 nM | – | – | –
COC(=O)[C@H](c1ccc2ccccc2c1)[C@H]1CCCCN1.Cl | 0.0948 µM | – | – | 11.1 nM | –
COC(=O)[C@H](c1ccc(-c2ccccc2)cc1)[C@@H]1CCCCN1.Cl (racemic) | > 10 µM | – | – | 6470 nM | –
COC(=O)[C@H](c1ccc2cc(OC)ccc2c1)[C@@H]1CCCN1 | – | 54.6 nM | – | – | –
COC(=O)[C@H](c1ccc(Br)cc1)[C@@H]1CCCN1 (racemic) | – | > 10000 nM | 637 nM | – | –
COC(=O)[C@H](c1ccc2cc(Br)ccc2c1)[C@@H]1CCCN1 (racemic) | – | 11.4 nM | 195 nM | – | –
COC(=O)[C@H](c1ccc2ccccc2c1)[C@@H]1CCCCN1.Cl (racemic) | 0.105 µM | – | – | 2080 nM | –
COC(=O)[C@H](c1ccc(C)cc1)[C@H]1CCCN1 (racemic) | – | > 10000 nM | 1930 nM | – | –
COC(=O)[C@H](c1ccc2cc(Br)ccc2c1)[C@@H]1CCCN1 | – | 5.5 nM | 446 nM | – | –
COC(=O)[C@H](c1ccccc1)[C@@H]1CCCN1 (racemic) | – | > 10000 nM | > 1000 nM | – | –
COC(=O)[C@H](c1ccc2cc(C)ccc2c1)[C@@H]1CCCN1 (stereo in doubt; 10i) | – | 3.2 nM | 1410 nM | – | –
COC(=O)[C@H](c1ccccc1)[C@H]1CCCCN1.Cl (racemic) [DEXMETHYLPHENIDATE HYDROCHLORIDE] | > 10 µM | – | – | 164 nM | IC50 (Dopamine receptor [6]): 83 nM
COC(=O)[C@H](c1ccc2cc(C)ccc2c1)[C@@H]1CCCN1 (stereo in doubt) | – | 2.3 nM | 850 nM | – | –
COC(=O)[C@H](c1ccc(-c2ccccc2)cc1)[C@H]1CCCCN1.Cl (racemic) | > 10 µM | – | – | 1020 nM | –
COC(=O)[C@H](c1ccc2ccccc2c1)[C@@H]1CCCN1 (racemic) | – | 4 nM | 805 nM | – | –
COC(=O)[C@H](c1ccc(Cl)cc1)[C@@H]1CCCN1 (racemic) | – | 1900 nM | > 1000 nM | – | –
COC(=O)[C@H](c1ccc(Cl)cc1)[C@H]1CCCN1 (racemic) | – | 1080 nM | 272 nM | – | –
COC(=O)[C@H](c1ccc2cc(OC)ccc2c1)[C@@H]1CCCN1 (racemic) | – | 245 nM | – | – | –
COC(=O)[C@H](c1ccccc1)[C@@H]1CCCCN1.Cl (racemic) | > 10 µM | – | – | > 1000 nM | –
COC(=O)[C@H](c1ccc2ccccc2c1)[C@@H]1CCCN1 | – | 2.5 nM | 465 nM | – | –
COC(=O)[C@H](c1ccc(C)cc1)[C@H]1CCCCN1.Cl (racemic) | > 10 µM | – | – | 114 nM | IC50 (Dopamine receptor [6]): 33 nM
COC(=O)[C@H](c1ccc(C)cc1)[C@@H]1CCCN1 (racemic) | – | > 10000 nM | > 1000 nM | – | –
COC(=O)[C@H](c1ccc(Cl)c(Cl)c1)[C@@H]1CCCCN1.Cl (racemic) | > 10 µM | – | – | 33.8 nM | –
COC(=O)[C@H](c1ccc(Cl)cc1)[C@H]1CCCCN1.Cl (racemic) | 2.22 µM | – | – | 91.2 nM | IC50 (Dopamine receptor [6]): 20.6 nM

Reference: ChEMBL document CHEMBL1147504, “Synthesis of methylphenidate analogues and their binding affinities at dopamine and serotonin transport sites” (Bioorg Med Chem Lett, 2004)
